ChEMBL document CHEMBL5214923, “Contemporary mTOR inhibitor scaffolds to diseases breakdown: A patent review (2015-2021)” (Eur J Med Chem, 2022)

How the values were obtained:
mTORC1 [1] = molecular target: T1, mTORC1 (Homo sapiens, UniProt P42345+Q8N122+Q9BVC4); test: Inhibition of mTORC1 in human MDA-MB-468 cells assessed as measuring phosphorylated P70S6K incubated for 2 to 4 hrs by AlphaLISA assay; type: cell-based
mTORC2 = mTORC2 (Homo sapiens, UniProt P42345+Q6R327+Q9BPZ7+Q9BVC4); test: Inhibition of mTORC2 in human MDA-MB-468 cells assessed as measuring phosphorylated AKT incubated for 2 to 4 hrs by AlphaLISA assay; type: cell-based
mTORC1 [2] = molecular target: T1, mTORC1; test: Inhibition of mTORC1 in human MDA-MB-468 cells assessed as measuring phosphorylated 4EBP1 incubated for 2 to 4 hrs by AlphaLISA assay; type: cell-based
mTORC1 [3] = molecular target: T1, mTORC1; test: Inhibition of mTORC1 (unknown origin); type: protein-complex assay
[4] = molecular target: T2, Phosphatidylinositol 4,5-bisphosphate 3-kinase catalytic subunit delta isoform (Homo sapiens, UniProt O00329); test: Inhibition of human PI3Kdelta preincubated for 15 mins followed by ATP addition measured after 1 hr by TR-FRET assay
T2 sequence (O00329 whole entry): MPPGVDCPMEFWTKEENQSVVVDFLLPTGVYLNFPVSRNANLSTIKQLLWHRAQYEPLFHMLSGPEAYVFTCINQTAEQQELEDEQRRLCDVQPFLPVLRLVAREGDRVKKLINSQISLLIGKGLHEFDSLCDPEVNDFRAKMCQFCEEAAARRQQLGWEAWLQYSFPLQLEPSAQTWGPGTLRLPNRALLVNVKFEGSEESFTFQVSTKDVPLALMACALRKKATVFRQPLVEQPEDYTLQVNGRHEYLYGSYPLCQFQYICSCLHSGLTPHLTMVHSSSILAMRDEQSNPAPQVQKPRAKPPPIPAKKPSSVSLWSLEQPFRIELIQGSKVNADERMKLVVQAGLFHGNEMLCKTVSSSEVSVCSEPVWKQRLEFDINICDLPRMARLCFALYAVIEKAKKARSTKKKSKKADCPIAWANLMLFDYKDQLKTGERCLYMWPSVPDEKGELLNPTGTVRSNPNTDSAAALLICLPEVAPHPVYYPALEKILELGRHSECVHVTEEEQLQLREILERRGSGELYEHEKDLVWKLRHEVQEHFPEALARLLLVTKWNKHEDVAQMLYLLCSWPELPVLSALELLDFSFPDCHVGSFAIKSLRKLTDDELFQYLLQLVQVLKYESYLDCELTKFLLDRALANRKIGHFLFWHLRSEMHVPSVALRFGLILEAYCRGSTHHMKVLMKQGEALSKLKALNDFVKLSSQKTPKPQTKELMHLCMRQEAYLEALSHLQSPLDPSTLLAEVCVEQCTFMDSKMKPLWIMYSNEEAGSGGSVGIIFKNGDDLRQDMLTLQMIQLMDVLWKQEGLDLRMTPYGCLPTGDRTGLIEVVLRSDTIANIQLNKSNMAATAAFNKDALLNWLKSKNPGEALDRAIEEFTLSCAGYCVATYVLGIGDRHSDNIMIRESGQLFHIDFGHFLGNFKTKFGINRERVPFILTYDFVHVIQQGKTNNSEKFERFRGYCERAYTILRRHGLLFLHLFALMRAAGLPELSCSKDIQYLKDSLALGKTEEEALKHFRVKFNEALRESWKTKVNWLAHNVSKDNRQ

mTORC2, sequence (Q6R327 whole entry, other chains not shown): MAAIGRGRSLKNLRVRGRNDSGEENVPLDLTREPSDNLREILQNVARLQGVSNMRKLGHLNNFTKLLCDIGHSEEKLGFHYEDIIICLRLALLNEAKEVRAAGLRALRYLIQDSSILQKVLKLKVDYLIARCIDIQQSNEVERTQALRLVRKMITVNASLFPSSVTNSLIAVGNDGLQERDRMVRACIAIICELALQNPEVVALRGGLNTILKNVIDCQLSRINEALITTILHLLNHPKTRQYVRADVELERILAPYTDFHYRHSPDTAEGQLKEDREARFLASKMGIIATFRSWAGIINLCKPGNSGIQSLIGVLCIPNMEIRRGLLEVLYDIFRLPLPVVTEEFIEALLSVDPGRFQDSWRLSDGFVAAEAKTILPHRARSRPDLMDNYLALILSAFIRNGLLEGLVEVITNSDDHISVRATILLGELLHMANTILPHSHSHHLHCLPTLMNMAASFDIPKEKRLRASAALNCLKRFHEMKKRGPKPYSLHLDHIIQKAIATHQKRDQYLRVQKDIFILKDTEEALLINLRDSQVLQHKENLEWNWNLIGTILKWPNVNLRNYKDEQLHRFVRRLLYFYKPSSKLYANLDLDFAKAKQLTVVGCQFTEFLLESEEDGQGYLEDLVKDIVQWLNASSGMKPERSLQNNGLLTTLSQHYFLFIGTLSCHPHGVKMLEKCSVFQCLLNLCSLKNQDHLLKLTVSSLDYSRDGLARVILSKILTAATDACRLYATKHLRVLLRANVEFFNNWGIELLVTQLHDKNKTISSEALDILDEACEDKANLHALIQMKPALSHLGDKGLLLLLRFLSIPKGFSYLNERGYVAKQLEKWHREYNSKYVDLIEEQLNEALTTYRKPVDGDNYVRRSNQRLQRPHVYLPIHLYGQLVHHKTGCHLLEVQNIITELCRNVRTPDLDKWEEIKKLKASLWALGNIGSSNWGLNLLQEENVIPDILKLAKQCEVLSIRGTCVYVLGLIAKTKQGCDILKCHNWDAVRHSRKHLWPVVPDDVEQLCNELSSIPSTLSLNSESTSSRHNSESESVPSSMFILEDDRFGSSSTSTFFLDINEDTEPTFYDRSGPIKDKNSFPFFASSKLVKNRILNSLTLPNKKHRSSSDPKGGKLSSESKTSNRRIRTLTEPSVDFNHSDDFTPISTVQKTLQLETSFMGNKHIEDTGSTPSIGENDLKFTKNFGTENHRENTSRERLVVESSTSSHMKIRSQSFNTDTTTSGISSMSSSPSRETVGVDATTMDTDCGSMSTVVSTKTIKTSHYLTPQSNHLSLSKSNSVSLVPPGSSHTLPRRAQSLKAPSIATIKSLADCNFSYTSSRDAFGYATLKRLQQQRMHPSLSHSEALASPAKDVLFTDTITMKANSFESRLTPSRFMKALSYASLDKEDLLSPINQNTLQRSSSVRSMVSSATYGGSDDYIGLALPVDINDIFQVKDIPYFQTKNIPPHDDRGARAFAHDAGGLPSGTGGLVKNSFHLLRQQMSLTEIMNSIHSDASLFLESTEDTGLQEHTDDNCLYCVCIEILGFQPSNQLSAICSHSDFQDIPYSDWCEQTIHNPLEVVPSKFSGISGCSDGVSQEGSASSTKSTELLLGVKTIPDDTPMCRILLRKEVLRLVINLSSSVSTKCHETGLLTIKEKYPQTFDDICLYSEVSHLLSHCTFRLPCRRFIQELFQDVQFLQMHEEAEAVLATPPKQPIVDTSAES
mTORC2, sequence (Q9BPZ7 2-522 limits assumed, other chains not shown): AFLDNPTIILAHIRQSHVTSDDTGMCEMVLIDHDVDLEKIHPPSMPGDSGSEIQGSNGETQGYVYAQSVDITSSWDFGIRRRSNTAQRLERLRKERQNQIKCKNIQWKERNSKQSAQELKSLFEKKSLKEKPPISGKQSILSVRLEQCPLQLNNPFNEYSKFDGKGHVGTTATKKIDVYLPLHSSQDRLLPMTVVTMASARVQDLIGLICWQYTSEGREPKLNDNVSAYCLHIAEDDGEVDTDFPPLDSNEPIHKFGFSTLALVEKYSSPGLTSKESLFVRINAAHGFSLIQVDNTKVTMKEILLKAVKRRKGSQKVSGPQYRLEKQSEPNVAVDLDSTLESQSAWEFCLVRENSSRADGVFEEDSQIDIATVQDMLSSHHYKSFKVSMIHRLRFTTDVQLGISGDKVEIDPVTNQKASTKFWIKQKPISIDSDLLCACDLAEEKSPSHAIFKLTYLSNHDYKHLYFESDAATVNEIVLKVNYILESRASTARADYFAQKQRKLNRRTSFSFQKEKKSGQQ
mTORC2, sequence (Q9BVC4 whole entry, other chains not shown): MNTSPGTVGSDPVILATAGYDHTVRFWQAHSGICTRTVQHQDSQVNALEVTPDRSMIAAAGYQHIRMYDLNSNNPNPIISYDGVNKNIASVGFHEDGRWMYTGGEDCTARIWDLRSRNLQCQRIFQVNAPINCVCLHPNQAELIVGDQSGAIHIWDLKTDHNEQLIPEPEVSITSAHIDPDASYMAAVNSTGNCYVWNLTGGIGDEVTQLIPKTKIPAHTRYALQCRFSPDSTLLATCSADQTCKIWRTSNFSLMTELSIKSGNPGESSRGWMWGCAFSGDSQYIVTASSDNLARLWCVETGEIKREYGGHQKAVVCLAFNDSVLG

SMILES | IC50 (mTORC1 [1]) [nM] | IC50 (mTORC2) [nM] | IC50 (mTORC1 [2]) [nM] | IC50 (mTORC1 [3]) [nM] | IC50 [4] [nM]
CO[C@H]1C[C@@H]2CC[C@@H](C)[C@@](O)(O2)C(=O)C(=O)N2CCCC[C@H]2C(=O)O[C@H]([C@H](C)C[C@@H]2CC[C@@H](OCCCN3CCOC(C)(C)C3)[C@H](OC)C2)C[C@@H](O)[C@H](C)/C=C(\C)[C@@H](O)[C@@H](OC)C(NOCC(=O)NCCOCCOCCOCCOCCOCCOCCC(=O)N2CCc3cc(Cn4nc(-c5ccc6oc(N)nc6c5)c5c(N)ncnc54)ccc3C2)[C@H](C)C[C@H](C)C\C=C/C=C/C=C/1C (some centres not stated) | ≤ 1 | 1000 | ≤ 3.16 |  | 
CO[C@H]1C[C@@H]2CC[C@@H](C)[C@@](O)(O2)C(=O)C(=O)N2CCCC[C@H]2C(=O)O[C@H]([C@H](C)C[C@@H]2CC[C@@H](OCc3cccc(-c4cnc(N5CCN(C(=O)CCc6cn(CCOCCOCCC(=O)NCCCCn7nc(-c8ccc9nc(N)oc9c8)c8c(N)ncnc87)nn6)CC5)nc4)c3)[C@H](OC)C2)CC(=O)[C@H](C)/C=C(\C)[C@@H](O)[C@@H](OC)C(=O)[C@H](C)C[C@H](C)C\C=C/C=C/C=C/1C | ≤ 1 | > 31.6 | ≤ 3.16 |  | 
COc1cccc2cc(-c3nc([C@H]4CC[C@H](C(=O)NCCOCCOCCNC(=O)CCOCCOCCOCCOCCn5cc(CCCCO[C@@H]6CC[C@@H](C[C@@H](C)[C@@H]7CC(=O)[C@H](C)/C=C(\C)[C@@H](O)[C@@H](OC)C(=O)[C@H](C)C[C@H](C)C\C=C/C=C/C=C(\C)[C@@H](OC)C[C@@H]8CC[C@@H](C)[C@@](O)(O8)C(=O)C(=O)N8CCCC[C@H]8C(=O)O7)C[C@H]6OC)nn5)CC4)n4ncnc(N)c34)[nH]c12 | ≤ 1 | > 31.6 | ≤ 3.16 |  | 
COc1cccc2cc(-c3nc([C@H]4CC[C@H](C(=O)NCCOCCOCCNC(=O)CCOCCOCCOCCOCCn5cc(CCCCO[C@@H]6CC[C@@H](C[C@@H](C)[C@@H]7C[C@@H](OC)[C@H](C)/C=C(\C)[C@@H](O)[C@@H](OC)C(=O)[C@H](C)C[C@H](C)C\C=C/C=C/C=C(\C)[C@@H](OC)C[C@@H]8CC[C@@H](C)[C@@](O)(O8)C(=O)C(=O)N8CCCC[C@H]8C(=O)O7)C[C@H]6OC)nn5)CC4)n4ncnc(N)c34)[nH]c12 | ≤ 1 | > 31.6 | ≤ 3.16 |  | 
CO[C@H]1C[C@@H]2CC[C@@H](C)[C@@](O)(O2)C(=O)C(=O)N2CCCC[C@H]2C(=O)O[C@H]([C@H](C)C[C@@H]2CC[C@@H](OCCCN3CCOC(C)(C)C3)[C@H](OC)C2)CC[C@H](C)/C=C(\C)[C@@H](O)[C@@H](OC)C(NOCC(=O)NCCOCCOCCOCCOCCOCCOCCC(=O)N2CCc3cc(Cn4nc(-c5ccc6oc(N)nc6c5)c5c(N)ncnc54)ccc3C2)[C@H](C)C[C@H](C)C\C=C/C=C/C=C/1C (some centres not stated) | ≤ 1 | 1000 | ≤ 3.16 |  | 
Nc1ncnc2c1c(-c1cc3cc(O)ccc3[nH]1)nn2C1CCOCC1 |  |  |  | < 5 | 50
CO[C@H]1C[C@@H]2CC[C@@H](C)[C@@](O)(O2)C(=O)C(=O)N2CCCC[C@H]2C(=O)O[C@H]([C@H](C)C[C@@H]2CC[C@@H](OCCCCc3cn(CCOCCOCCOCCOCCOCCOCCC(=O)NCCCCn4nc(-c5cccc(C(=O)NC6=NCCS6)c5)c5c(N)ncnc54)nn3)[C@H](OC)C2)CC(=O)[C@H](C)/C=C(\C)[C@@H](O)[C@@H](OC)C(=O)[C@H](C)C[C@H](C)C\C=C/C=C/C=C/1C | ≤ 1 | > 31.6 | ≤ 3.16 |  | 
CO[C@H]1C[C@@H]2CC[C@@H](C)[C@@](O)(O2)C(=O)C(=O)N2CCCC[C@H]2C(=O)O[C@H]([C@H](C)C[C@@H]2CC[C@@H](OCCCN3CCOC(C)(C)C3)[C@H](OC)C2)C[C@@H](O)[C@H](C)/C=C(\C)[C@@H](O)[C@@H](OC)C(NOCC(=O)NCCOCCOCCOCCOCCOCCOCCC(=O)N2CCC(n3nc(-c4ccc5oc(N)nc5c4)c4c(N)ncnc43)CC2)[C@H](C)C[C@H](C)C\C=C/C=C/C=C/1C (some centres not stated) | ≤ 1 | 1000 | ≤ 3.16 |  | 
CC(=O)N1CCC(n2nc(-c3cc4c(Cl)ccc(O)c4[nH]3)c3c(N)ncnc32)CC1 |  |  |  | < 5 | 100
Nc1ncnc2c1c(-c1cc3cccc(O)c3[nH]1)nn2C1CCOCC1 |  |  |  | < 5 | 100
